SMILES strings stand for the structures. Values joined by “and” are separate entries in the source; they are usually repeats but may differ in a detail not shown here. Identical values can stand only once.

The test system of the assay is tomato leaf transpiration. Nature of the assay: tomato leaf transpiration inhibition bioassay (foliar application, porometer). The assay is classed as in vivo, Tomato (variety: Rutgers). The following applies: 25 ppm ABA analog foliar applied; for Transpiration rate (% of control): 20 mL/6 plants. As for the experimental part:
ABA analog effectiveness may be measured experimentally by quantifying the inhibition of transpiration in tomato leaves; this is a reliable laboratory bioassay of the level of ABA activity.
All the research studies were conducted in the greenhouse at the research farm of Valent BioSciences Corporation (Long Grove, Ill.). Tomato (variety: Rutgers) seeds were sown in 18-cell flats filled with Promix PGX (available from Premier Horticulture Inc. Quakertown, Pa.) three weeks for germination and initial growth. Plants were then transplanted into pots (18 cm in diameter and 18 cm in height) filled with Promix BX (available from Premier Horticulture Inc. Quakertown, Pa.) and grown for one or two more weeks before treatment, depending on greenhouse temperature. During growing periods, plants received daily irrigation and weekly fertilizer (1 g/L all purpose fertilizer 20-20-20, The Scotts Company, Marysville, Ohio).
Chemical solutions were prepared with distilled water. ABA analogs, 8′ acetylene-ABA, acid (PBI-524) and 8′ acetylene-ABA methyl ester (PBI-429) were available from Plant Biotechnology Institute, National Research Council of Canada (Saskatoon, Saskatchewan, Canada). 25 ppm PBI-429 or 25 ppm PBI-524 was prepared by dissolving 25 mg chemical in 1 L distilled water.
Tween 20 and Brij 98 were available from Uniqema (New Castle, Del.). Silwet L-77 was available from GE Silicones (Wilton, Conn.). Agral 90 was available from Norac Concept. Inc. (Orleans, Ontario, Canada). Kinetic was available from Setre Chemical Company (Memphis, Tenn.). Capsil was available from Aquatrols (Paulsboro, N.J.). Urea and ammonium nitrate (NH4NO3) were available from Sigma-Aldrich (St. Louis, Mo.). Ethyl lactate was available from Fluka Chemie (GmbH, Buchs, Germany). Surfactant was added to 250-ppm ABA or 25-ppm ABA analogs at the concentration of 0.05% or 0.5% (v/v). Since Brij 98 was a waxy substance and difficult to dissolve in water, a stock solution of 25% Brij 98 was prepared by dissolving 25 g Brij 98 in 75 g ethyl lactate and this solution was easily dissolve in water.
Chemical solutions were foliar applied to tomato plant leaves at the rate of 20 mL/6 plants. Plants were then placed in a transparent chamber with humidity controlled at relative humidity 40 to 60%. […] The transpiration rate of each treatment was calculated as the percentage of that of control at each day to reduce day-to-day variation caused by changes of environmental condition such as light intensity and temperature.
All experiments were randomized complete block experimental design. Data were analyzed by analysis of variance. Duncan's new multiple range tests at α=0.05 were used for mean separations.

Setting [1] is: average over 7 days (days 1, 2, 3, 4, 7).

For the molecule `C#CC1(C)CC(=O)C=C(C)C1(O)/C=C/C(C)=C\C(=O)OC` (stereo not shown) [PBI-429, 8′ acetylene-ABA methyl ester], the “Transpiration rate (% of control)” value was 102 % of control and 81 % of control and 77 % of control (1 day after treatment); 87 % of control and 64 % of control and 60 % of control (2 days after treatment); 86 % of control and 69 % of control and 71 % of control (3 days after treatment); 77.52 % of control and 78 % of control and 81 % of control and 77 % of control (4 days after treatment); 95 % of control and 73 % of control (7 days after treatment). In addition, the “Transpiration rate (% of control), Average” value is 70 % of control (average of days 1, 2, 3 (Table 11)) and 74 % of control under setting [1].

For the molecule `C#CC1(C)CC(=O)C=C(C)C1(O)C=CC(C)=CC(=O)O` (stereo not shown) [PBI-524, 8′ acetylene-ABA, acid], the “Transpiration rate (% of control)” value is 95 % of control and 81 % of control (1 day after treatment); 87 % of control and 63 % of control (2 days after treatment); 93 % of control and 69 % of control (3 days after treatment); 92 % of control and 79 % of control (4 days after treatment); 101 % of control and 91 % of control (7 days after treatment). Moreover, the “Transpiration rate (% of control), Average” value under setting [1] is reported as 77 % of control.

Source of the values: patent publication US20080227643A1, “Use of adjuvants to improve abscisic acid analog and abscisic acid derivative performance” (priority 2007, published 2008).
